≈ marks a conversion by molar mass, not a printed value. Bounds are passed on as bounds.

In data set [1] the test system is M. smegmatis inverted membrane vesicle. Also on record: method as in doi:10.1039/C5MD00589B, PMID 35140452. The following applies: M. smegmatis inverted membrane vesicle assay; cited from earlier work.
The subject of data set [2] is tuberculosis. Further details: method as in doi:10.1039/C5MD00589B, PMID 35140452. As to conditions: cited from earlier work.
The test system of data set [3] is M.tb bacteria. Further details: method as in doi:10.1039/C5MD00589B, PMID 35140452. The following applies: cited from earlier work.
For data set [4], the system named is Mycobacterium tuberculosis (strain H37Rv). Put plainly: MABA minimum inhibitory concentration assay (aerobic/replicating). Type of data set: cell-based. As to conditions: M.tb H37Rv; for MIC90: Mycobacterium tuberculosis, aerobic/replicating, 90% inhibition of growth.
Data set [5] is described as follows: Microsomal stability, human liver microsomes. Format: in vitro ADME. The following applies: pH 7.4; for microsomal CLint at 1 μM: human liver microsomes, read-out: HLM Clint(mic). The essentials:
(§1)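 Compounds at 1 μM incubated at 37 °C with human or CD-1 mouse liver microsomes (0.5 mg/mL protein) plus NADPH regenerating system in 100 mM phosphate buffer, pH 7.4. Samples taken at 0–60 min, quenched in cold acetonitrile and analysed by LC-MS/MS.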

A short description of data set [6]: Microsomal stability, mouse liver microsomes. The following applies: for CLint scaled at 1 μM / half-life at 1 μM: CD-1, mouse, microsomes, pH 7.4; for microsomal CLint at 1 μM: CD-1, pH 7.4, mouse liver microsomes, read-out: MLM Clint(mic). Format: in vitro ADME. In short, it runs like this:
as §1

Data set [7] has as its target hERG (Homo sapiens, UniProt Q12809). Put plainly: hERG channel blockade, manual patch clamp. Type of data set: cell-based. As to conditions: cloned hERG potassium channels, room temperature; for inhibition at 0.3 µM: read-out: hERG % inhib. at 0.3 µM; for inhibition at 1 µM: read-out: hERG % inhib. at 1.0 µM. As for the experimental part:
Selected compounds were evaluated for hERG channel blockade (Table 4) by WuXi AppTec (Shanghai) Co., Ltd. This was carried out using cloned hERG potassium channels according to their standard manual patch clamp method. Two concentrations (0.3 and 1.0 µM) were tested (at room temperature), and at least three replicates were obtained for each. Amitryptyline was used as a standard.

Data set [8] has as its system VERO green monkey kidney cells. Put plainly: VERO mammalian cell toxicity assay. Format: cell-based. The following applies: Chlorocebus sabaeus; inhibition of growth of VERO green monkey kidney epithelial cells.
Data set [9] has as its system Mycobacterium tuberculosis (strain H37Rv). Put plainly: LORA minimum inhibitory concentration assay (low-oxygen/non-replicating). The following applies: M.tb H37Rv, 90% inhibition of growth.

Sequence of hERG (Q12809 whole entry): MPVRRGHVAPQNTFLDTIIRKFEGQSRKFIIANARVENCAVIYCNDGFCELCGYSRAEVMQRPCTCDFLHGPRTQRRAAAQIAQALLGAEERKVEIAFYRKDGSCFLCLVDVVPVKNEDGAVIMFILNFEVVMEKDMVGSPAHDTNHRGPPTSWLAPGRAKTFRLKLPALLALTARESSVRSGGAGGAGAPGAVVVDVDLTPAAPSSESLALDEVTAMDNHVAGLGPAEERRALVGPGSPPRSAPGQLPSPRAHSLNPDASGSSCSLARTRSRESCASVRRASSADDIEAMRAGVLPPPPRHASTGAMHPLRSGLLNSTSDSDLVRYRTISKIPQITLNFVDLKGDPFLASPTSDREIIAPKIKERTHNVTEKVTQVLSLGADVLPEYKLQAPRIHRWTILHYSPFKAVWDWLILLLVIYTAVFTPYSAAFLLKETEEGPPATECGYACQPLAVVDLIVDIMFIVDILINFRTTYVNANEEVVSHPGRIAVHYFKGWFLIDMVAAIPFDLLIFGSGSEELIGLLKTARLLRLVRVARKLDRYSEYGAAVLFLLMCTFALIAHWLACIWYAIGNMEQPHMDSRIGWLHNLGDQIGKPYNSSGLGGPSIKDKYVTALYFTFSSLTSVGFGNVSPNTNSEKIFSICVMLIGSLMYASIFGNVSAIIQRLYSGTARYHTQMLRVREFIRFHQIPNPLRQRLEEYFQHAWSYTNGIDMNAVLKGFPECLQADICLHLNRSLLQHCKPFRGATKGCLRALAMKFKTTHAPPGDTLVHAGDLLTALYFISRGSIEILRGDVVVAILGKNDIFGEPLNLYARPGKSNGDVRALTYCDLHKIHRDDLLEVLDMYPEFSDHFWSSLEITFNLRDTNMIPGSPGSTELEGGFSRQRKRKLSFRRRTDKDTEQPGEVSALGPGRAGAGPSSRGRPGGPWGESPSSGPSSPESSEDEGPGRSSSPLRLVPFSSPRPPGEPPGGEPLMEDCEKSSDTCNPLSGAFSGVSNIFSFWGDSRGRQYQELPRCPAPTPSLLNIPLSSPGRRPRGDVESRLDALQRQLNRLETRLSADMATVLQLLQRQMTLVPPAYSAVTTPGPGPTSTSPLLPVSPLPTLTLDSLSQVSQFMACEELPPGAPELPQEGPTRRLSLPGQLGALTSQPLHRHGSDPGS

Consider `CN(C)CCOc1ncc(Nc2cc(-c3ccccc3)nc3cc(-c4ccc(F)cc4)nn23)cc1F` [Compound 5], for which the “depletion of ATP” value in [1] is given as “modest inhibitors”. Further, in data set [2], the “activity in vivo in an acute mouse model of tuberculosis” value is listed as “active in vivo”. The “inhibition of M.tb bacteria in culture” value in data set [3] was “modest inhibitors”.

Regarding `CN(C)CCOc1ncc(Nc2cc(C(F)(F)F)nc3cc(-c4ccc(F)cc4)nn23)cc1F` [Compound 6], in data set [1], the “depletion of ATP” value is “modest inhibitors”. In addition, the “activity in vivo in an acute mouse model of tuberculosis” value in [2] is “active in vivo”. The “inhibition of M.tb bacteria in culture” value in [3] is reported as “modest inhibitors”.

The compound `Fc1ccc(-c2cnn3c(NCc4ccccn4)cc(-c4ccccc4)nc23)cc1` [Compound 18, 3-(4-Fluorophenyl)-5-phenyl-N-(pyridin-2-ylmethyl)pyrazolo[1,5-a]pyrimidin-7-amine] gave a melting point of 191 to 193 °C. The “anti-mycobacterial activity in words” value in [4] (MABA/LORA) was “active”. The same compound yielded an MIC90 in [4] of 3.8 µg/mL (≈ 9.61 µM). Moreover, in data set [5] (human, microsomes), the CLint scaled at 1 μM amounted to 12 mL/min/kg and the half-life at 1 μM was determined as 1.75 h. The microsomal CLint at 1 μM in data set [5] turned out to be 13 µL/min/mg. The half-life at 1 μM in data set [5] (human/mouse liver microsomes not distinguished, read-out: T½ values (microsomal stability)) is < 1.42 h. Moreover, in data set [6], the intrinsic clearance (CLint scaled) at 1 μM came out at 99 mL/min/kg, the half-life at 1 μM stood at 0.933 h and the microsomal CLint at 1 μM is 25 µL/min/mg. Besides, in [7], the inhibition at 0.3 µM stood at 0.3% and the inhibition at 1 µM was determined as 5%. In [8], the half-inhibitory concentration (IC50) was > 32 µg/mL. Besides, the “MIC90 LORA” value in data set [9] turned out to be 0.40 µg/mL (≈ 1.01 µM).

In turn, `Fc1ccc(-c2cnn3c(NCc4ccc(Cl)cn4)cc(-c4ccccc4)nc23)cc1` [Compound 53, N-((5-Chloropyridin-2-yl)methyl)-3-(4-fluorophenyl)-5-phenylpyrazolo[1,5-a]pyrimidin-7-amine] returned a melting point of 139 to 141 °C. In data set [4], this compound gave an MIC90 of 4.9 µg/mL (≈ 11.4 µM). For the same compound, in data set [5] (human, microsomes), the CLint scaled at 1 μM is < 8.6 mL/min/kg and the half-life at 1 μM was > 2.42 h. Further, the microsomal CLint at 1 μM in [5] was < 9.6 µL/min/mg. Further, in [6], the intrinsic metabolic clearance (CLint scaled) at 1 μM is < 38 mL/min/kg, the half-life at 1 μM was > 2.42 h and the microsomal CLint at 1 μM was < 9.6 µL/min/mg. For the same compound, in data set [7], the inhibition at 0.3 µM was 0.7% and the inhibition at 1 µM amounted to 0%. Moreover, the IC50 in data set [8] is > 32 µg/mL. Further, the “MIC90 LORA” value in data set [9] is on record as 7.2 µg/mL (≈ 16.7 µM).

In turn, `Fc1ccc(-c2cnn3c(NCc4ccc(F)cn4)cc(-c4ccccc4)nc23)cc1` [Compound 52, 3-(4-Fluorophenyl)-N-((5-fluoropyridin-2-yl)methyl)-5-phenylpyrazolo[1,5-a]pyrimidin-7-amine] displayed a melting point of 118 to 120 °C. Further, in [4], the MIC90 turned out to be 3.7 µg/mL (≈ 8.95 µM). Besides, in data set [5] (human, microsomes), the CLint scaled at 1 μM turned out to be 11 mL/min/kg and the half-life at 1 μM amounted to 1.81 h. Also, in [5], the microsomal CLint at 1 μM was found to be 13 µL/min/mg. Besides, in data set [6], the CLint scaled at 1 μM was determined as 50.3 mL/min/kg, the half-life at 1 μM is 1.82 h and the microsomal CLint at 1 μM worked out at 12.7 µL/min/mg. In [7], the inhibition at 0.3 µM amounted to 0.8% and the inhibition at 1 µM stood at 11%. The IC50 in [8] was > 32 µg/mL. In data set [9], the “MIC90 LORA” value came out at 3.4 µg/mL (≈ 8.22 µM).

For `COc1ccnc(CNc2cc(-c3ccccc3)nc3c(-c4ccc(F)cc4)cnn23)c1` [Compound 63, 3-(4-Fluorophenyl)-N-((4-methoxypyridin-2-yl)methyl)-5-phenylpyrazolo[1,5-a]pyrimidin-7-amine], the melting point was 205 to 208 °C. Besides, in [4], the MIC90 came to 1.9 µg/mL (≈ 4.47 µM). In addition, in data set [5] (human, microsomes), the intrinsic clearance (CLint scaled) at 1 μM was < 8.6 mL/min/kg and the half-life at 1 μM was > 2.42 h. Further, in [5], the microsomal CLint at 1 μM was < 9.6 µL/min/mg. Further, in [6], the CLint scaled at 1 μM is < 38 mL/min/kg, the half-life at 1 μM was > 2.42 h and the microsomal CLint at 1 μM is < 9.6 µL/min/mg. In [7], the inhibition at 0.3 µM came to 2.3% and the inhibition at 1 µM is 4.6%. Moreover, in data set [8], the IC50 is > 32 µg/mL. Further, the “MIC90 LORA” value in data set [9] was found to be 0.5 µg/mL (≈ 1.18 µM).

Values taken from PMC9506485, “Synthesis and Structure–Activity Relationships for the Anti-Mycobacterial Activity of 3-Phenyl-N-(Pyridin-2-ylmethyl)Pyrazolo[1,5-a]Pyrimidin-7-Amines” (Pharmaceuticals, 2022).
